The record followed here is the supplement of paper PMC10307832.

Holding throughout (test): relative viability (nuclei count vs DMSO), 5 days (fraction); higher = more cells survive
Compound in one assay: C1CN(CCN1)C2=CC=C(C=C2)C3=CN4C(=C(C=N4)C5=CC=NC6=CC=CC=C56)N=C3 [DM3189]
Summed up: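 Cells of lung cancer lines were placed in 1536-well plates and kept overnight at 37 °C. Pinning then delivered five library-drug doses (not always all listed), spaced by √10, onto plates anchored with vehicle, and the cells were left 5 days without changing medium. One step fixed, permeabilised and stained them with Hoechst, and MetaXpress counted nuclei in 4× images. Viability, as a median over plates, is treated-well nuclei divided by vehicle-well nuclei, with acceptance only at control CV below 25% and at least one doubling.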

Compound in the assay “DM3189 + Trametinib”: C1CN(CCN1)C2=CC=C(C=C2)C3=CN4C(=C(C=N4)C5=CC=NC6=CC=CC=C56)N=C3 [DM3189] + CC(=O)Nc1cccc(-n2c(=O)n(C3CC3)c(=O)c3c(Nc4ccc(I)cc4F)n(C)c(=O)c(C)c32)c1 [Trametinib] (partner 0.02 µM)
Summed up: (§1)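 Relative viability is defined as nuclei in treated wells over nuclei in vehicle wells. Duplicate plates were run and medians reported. Lung cancer cell lines in 1536-well plates were dosed by pin tool one day after seeding, with one drug or with a fixed anchor-drug dose plus five library-drug doses (not always all listed) in √10 steps, and nuclei were counted after 5 days.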

Compound in the assay “DM3189 + Lapatinib”: C1CN(CCN1)C2=CC=C(C=C2)C3=CN4C(=C(C=N4)C5=CC=NC6=CC=CC=C56)N=C3 [DM3189] + CS(=O)(=O)CCNCc1ccc(-c2ccc3ncnc(Nc4ccc(OCc5cccc(F)c5)c(Cl)c4)c3c2)o1 [Lapatinib] (partner 2 µM)
The gist of the method:
as §1

Compound in the assay “DM3189 + AZD7762”: C1CN(CCN1)C2=CC=C(C=C2)C3=CN4C(=C(C=N4)C5=CC=NC6=CC=CC=C56)N=C3 [DM3189] + NC(=O)Nc1cc(-c2cccc(F)c2)sc1C(=O)N[C@H]1CCCNC1 [AZD7762] (partner 0.2 µM)
The gist of the method: as §1

Compound in the assay “DM3189 + Vorinostat”: C1CN(CCN1)C2=CC=C(C=C2)C3=CN4C(=C(C=N4)C5=CC=NC6=CC=CC=C56)N=C3 [DM3189] + O=C(CCCCCCC(=O)Nc1ccccc1)NO [Vorinostat] (partner 1 µM)
The gist of the method: as §1

As for NCI-H460, the relative viability with DM3189 (0.08 µM) was 1.01; with DM3189 (0.253 µM), 0.949; with DM3189 (0.8 µM), 0.855; in the assay with DM3189 (2.53 µM), 1.12; with DM3189 + Trametinib (first compound 0.08 µM), 0.341; with DM3189 + Trametinib (first compound 0.253 µM), 0.242. Moreover, the relative viability was found to be 0.154 with DM3189 + Trametinib (first compound 0.8 µM); 0.241 with DM3189 + Trametinib (first compound 2.53 µM); 1.45 with DM3189 + Lapatinib (first compound 0.08 µM); 1.03 in the assay with DM3189 + Lapatinib (first compound 0.253 µM); 0.825 with DM3189 + Lapatinib (first compound 0.8 µM); 0.235 with DM3189 + Lapatinib (first compound 2.53 µM). Moreover, the relative viability came to 0.784 in the assay with DM3189 + AZD7762 (first compound 0.08 µM); 0.524 in the assay with DM3189 + AZD7762 (first compound 0.253 µM); 0.395 with DM3189 + AZD7762 (first compound 0.8 µM); 0.691 with DM3189 + AZD7762 (first compound 2.53 µM); 1.02 with DM3189 + Vorinostat (first compound 0.08 µM); 0.725 with DM3189 + Vorinostat (first compound 0.253 µM). The relative viability with DM3189 + Vorinostat (first compound 0.8 µM) amounted to 0.654; in the assay with DM3189 + Vorinostat (first compound 2.53 µM), 0.862.
Turning to NCI-H23, the relative viability with DM3189 (0.08 µM) turned out to be 1.13; with DM3189 (0.253 µM) it was 0.805; with DM3189 (0.8 µM), 0.804; in the assay with DM3189 (2.53 µM), 0.842; in the assay with DM3189 + Trametinib (first compound 0.08 µM), 0.409; in the assay with DM3189 + Trametinib (first compound 0.253 µM), 0.352. Besides, the relative viability with DM3189 + Trametinib (first compound 0.8 µM) stood at 0.324; with DM3189 + Trametinib (first compound 2.53 µM) it was 0.442; with DM3189 + Lapatinib (first compound 0.08 µM), 1.32; with DM3189 + Lapatinib (first compound 0.253 µM), 0.888; with DM3189 + Lapatinib (first compound 0.8 µM), 0.994; in the assay with DM3189 + Lapatinib (first compound 2.53 µM), 1.19. Further, the relative viability in the assay with DM3189 + AZD7762 (first compound 0.08 µM) worked out at 0.231; with DM3189 + AZD7762 (first compound 0.253 µM), 0.237; with DM3189 + AZD7762 (first compound 0.8 µM), 0.128; in the assay with DM3189 + AZD7762 (first compound 2.53 µM), 0.265; with DM3189 + Vorinostat (first compound 0.08 µM), 0.668; with DM3189 + Vorinostat (first compound 0.253 µM), 0.51. Further, the relative viability with DM3189 + Vorinostat (first compound 0.8 µM) is 0.564; with DM3189 + Vorinostat (first compound 2.53 µM) it was 0.539.
Regarding NCI-H1975, the relative viability was found to be 1.07 with DM3189 (0.08 µM); 0.972 with DM3189 (0.253 µM); 0.793 with DM3189 (0.8 µM); 0.881 in the assay with DM3189 (2.53 µM); 0.37 with DM3189 + Trametinib (first compound 0.08 µM); 0.367 with DM3189 + Trametinib (first compound 0.253 µM). Moreover, the relative viability with DM3189 + Trametinib (first compound 0.8 µM) was determined as 0.316; with DM3189 + Trametinib (first compound 2.53 µM), 0.299; in the assay with DM3189 + Lapatinib (first compound 0.08 µM) it was 1.15; in the assay with DM3189 + Lapatinib (first compound 0.253 µM), 0.952; in the assay with DM3189 + Lapatinib (first compound 0.8 µM), 0.725; with DM3189 + Lapatinib (first compound 2.53 µM), 0.764. The relative viability was determined as 0.757 with DM3189 + AZD7762 (first compound 0.08 µM); 0.682 with DM3189 + AZD7762 (first compound 0.253 µM); 0.522 in the assay with DM3189 + AZD7762 (first compound 0.8 µM); 0.625 with DM3189 + AZD7762 (first compound 2.53 µM); 0.803 in the assay with DM3189 + Vorinostat (first compound 0.08 µM); 0.732 with DM3189 + Vorinostat (first compound 0.253 µM). Further, the relative viability with DM3189 + Vorinostat (first compound 0.8 µM) came out at 0.701; with DM3189 + Vorinostat (first compound 2.53 µM), 0.687.
Regarding NCI-H650, the relative viability came to 1.09 with DM3189 (0.08 µM); 0.848 with DM3189 (0.253 µM); 0.877 with DM3189 (0.8 µM); 0.965 in the assay with DM3189 (2.53 µM); 0.988 in the assay with DM3189 + Trametinib (first compound 0.08 µM); 0.826 in the assay with DM3189 + Trametinib (first compound 0.253 µM). Also, the relative viability in the assay with DM3189 + Trametinib (first compound 0.8 µM) stood at 0.749; in the assay with DM3189 + Trametinib (first compound 2.53 µM) it was 0.877; in the assay with DM3189 + Lapatinib (first compound 0.08 µM), 0.992; with DM3189 + Lapatinib (first compound 0.253 µM) it was 0.593; in the assay with DM3189 + Lapatinib (first compound 0.8 µM), 0.765; in the assay with DM3189 + Lapatinib (first compound 2.53 µM) it was 0.521. Also, the relative viability with DM3189 + AZD7762 (first compound 0.08 µM) worked out at 0.937; with DM3189 + AZD7762 (first compound 0.253 µM), 0.956; with DM3189 + AZD7762 (first compound 0.8 µM), 1.05; in the assay with DM3189 + AZD7762 (first compound 2.53 µM), 1; with DM3189 + Vorinostat (first compound 0.08 µM), 0.391; with DM3189 + Vorinostat (first compound 0.253 µM) it was 0.501. Also, the relative viability with DM3189 + Vorinostat (first compound 0.8 µM) turned out to be 0.383; with DM3189 + Vorinostat (first compound 2.53 µM), 0.428.
For A-427, the relative viability with DM3189 (0.08 µM) amounted to 1.19; with DM3189 (0.253 µM) it was 1; with DM3189 (0.8 µM) it was 0.93; in the assay with DM3189 (2.53 µM) it was 0.947; with DM3189 + Trametinib (first compound 0.08 µM) it was 0.865; with DM3189 + Trametinib (first compound 0.253 µM), 0.736. The relative viability turned out to be 0.638 with DM3189 + Trametinib (first compound 0.8 µM); 0.819 with DM3189 + Trametinib (first compound 2.53 µM); 1.08 with DM3189 + Lapatinib (first compound 0.08 µM); 1.03 in the assay with DM3189 + Lapatinib (first compound 0.253 µM); 0.983 with DM3189 + Lapatinib (first compound 0.8 µM); 0.929 with DM3189 + Lapatinib (first compound 2.53 µM). Further, the relative viability with DM3189 + AZD7762 (first compound 0.08 µM) is 0.684; with DM3189 + AZD7762 (first compound 0.253 µM), 0.701; in the assay with DM3189 + AZD7762 (first compound 0.8 µM) it was 0.677; with DM3189 + AZD7762 (first compound 2.53 µM), 0.723; with DM3189 + Vorinostat (first compound 0.08 µM) it was 0.941; in the assay with DM3189 + Vorinostat (first compound 0.253 µM), 0.791. The figures for the relative viability with DM3189 + Vorinostat (first compound 0.8 µM) and with DM3189 + Vorinostat (first compound 2.53 µM) were 0.801 and 0.816, respectively.
Turning to LXF-289, the relative viability amounted to 0.996 with DM3189 (0.08 µM); 1.04 with DM3189 (0.253 µM); 0.973 with DM3189 (0.8 µM); 1.14 with DM3189 (2.53 µM); 0.74 with DM3189 + Trametinib (first compound 0.08 µM); 0.686 with DM3189 + Trametinib (first compound 0.253 µM). The relative viability in the assay with DM3189 + Trametinib (first compound 0.8 µM) was 0.692; with DM3189 + Trametinib (first compound 2.53 µM), 0.694; with DM3189 + Lapatinib (first compound 0.08 µM), 0.9; in the assay with DM3189 + Lapatinib (first compound 0.253 µM) it was 0.934; with DM3189 + Lapatinib (first compound 0.8 µM) it was 0.868; in the assay with DM3189 + Lapatinib (first compound 2.53 µM) it was 0.981. Also, the relative viability was determined as 1.17 with DM3189 + AZD7762 (first compound 0.08 µM); 1.2 with DM3189 + AZD7762 (first compound 0.253 µM); 1.1 in the assay with DM3189 + AZD7762 (first compound 0.8 µM); 1.14 with DM3189 + AZD7762 (first compound 2.53 µM); 0.759 with DM3189 + Vorinostat (first compound 0.08 µM); 0.829 with DM3189 + Vorinostat (first compound 0.253 µM). Moreover, the relative viability with DM3189 + Vorinostat (first compound 0.8 µM) was 0.663; in the assay with DM3189 + Vorinostat (first compound 2.53 µM), 0.757.
